Like-named read-outs stand apart in the source and are kept apart here.
Tests used:
BC-1 cells = assay: Live cell confocal microscopy cellular uptake; assay type: in vitro ADME
Protocol: Live Cell Confocal Microscopy and Analysis: BC1 PEL cells in the exponential phase were resuspended in RPMI 1640 media supplemented with 50 μg/ml gentamicin in the absence of serum and treated with a final concentration of 0.125% DMSO or 500 nM FITC-labeled peptide at 37° C., cold or in the presence of 10 mM sodium azide. Cells were then added to 35 mm glass bottom MatTek poly-lysine coated plates (p356c-0-10C) and immunofluorescence images were captured using LSM880 confocal miscroscope with Airyscan resolution detector, spectral detector and incubation. Images were processed using Fiji software (FIG. 14).
Inhibition of the vFLIP-NEMO complex formation in KSHV-infected PEL cells requires the inhibitor to be cell permeable. […] In order to probe cellular entry mechanism, we performed cellular uptake experiments at 4° C. as well as with sodium azide poisoning to reduce ATP-mediated active transport mechanisms without affecting overall cellular viablity (Patgiri et al., Nat. Chem. Biol. 7:585-7 (2011); which is hereby incorporated by reference in its entirety).

Serum stability assay = assay type: in vitro ADME; details: 25% fetal bovine serum in RPMI, 60 μM peptide, read-out: initial peptide remaining intact
Protocol: Time points of 30 minutes, 1 hr, 2 hr, 8 hr, and 24 hrs were analyzed in triplicate. Each reaction was started upon addition of FBS to 60 μM peptide. Reactions were quenched at time points with addition of 100% EtOH, chilled on ice for 10 minutes, and pelleted at 12,000 RPM. Supernatant was injected onto an Agilent analytical HPLC equipped with an XTerra RP18 3.5 μm 2.1×150 mm column (Part No. 186000410) and visualized at 220 nm. Integration of peak areas was used to determine percent degradation of peptides. Mass of cleaved products were determined using Matrix assisted laser desorption ion time of flight (MALDI-TOF) spectroscopy.

[1] = Circular dichroism thermal denaturation; assay type: physicochemical; details: CD spectra between 5-95° C.
Excerpt: (§1) Data plotted represent mean±s.e.m of three replicate experiments. TR-FRET signal was normalized to DMSO control and expressed as percent inhibition. […] Data shown represent mean±s.d. of two independent experiments performed in triplicate. Data was normalized to c. (FIG. 3C) The conformation of the coiled coil mimics was investigated by circular dichroism spectroscopy in aqueous buffer. The reported values represent mean±s.e.m of two independent experiments. […] The circular dichroism spectra were collected at regular intervals between 5-95° C. Data shown represent one experiment where scans were recorded five times over the temperature range. […] Peptide degradation was probed over 24 h by HPLC. […] Cells were visualized by fluorescence microscopy after 1 hour incubation. […] Hoechst stain was used to detect the nuclei. Representative live confocal images from at least three replicate experiments are shown.
Circular Dichroism Spectroscopy: CD spectra were recorded on a Jasco J-1500 Circular Dichroism Spectrophotometer equipped with a temperature controller using 1 mm length cells and a scan speed of 4 nm/min at 298K. The spectra were averaged over 4 scans with the background subtracted to the analogous experimental conditions. […] The concentrations of each peptide were determined by the UV absorption at 280 nm.

[2] = system: BC-3-luc PEL cells xenograft; assay: PEL in vivo xenograft mouse model; design: species or system NOD/SCID mice; details: 20 mg/kg intraperitoneally, 9 consecutive days
Protocol: PEL in Vivo Xenograft Mouse Model Study: […] BC3NFRen-luc #3 were injected intraperitoneally into 4-6 week-old male NOD/SCID mice. […] The tumor burden or bioluminescence (photons/s/cm^2/steradian) was monitored by live imaging and weighing, with the sacrificial endpoint determined to be a net gain or loss of 10% body weight over a week.
We next tested its antitumor activity in vivo. We injected 10×10^6 BC-3-luc PEL cells into the peritoneal cavity of NOD-SCID mice and monitored tumor burden by bioluminescence imaging.

BC-3 PEL cell line [3] = assay: CellTiter-Glo cell viability assay, BC-3; details: read-out: BC-3 LC50 (μM)
Protocol: Media was supplemented with 20% FBS 3 hours post-peptide treatment.
(§2) Cytotoxicity of these hits was assayed using CellTiter Glo viability assay.

in vitro = details: human
Protocol: as §2

full length NEMO = assay: Fluorescence polarization direct binding assay, specificity over NEMO; details: FITC-labeled peptide
Excerpt: as §1
The polarization experiments were performed using a DTX 880 Multimode Detector (Beckman) at 25° C. with excitation and emission wavelengths of 485 and 525 nm, respectively. Each polarization experiment was performed in a 96-well round bottom plate (Greiner) in assay buffer: Tris glycerol pluronic acid. The binding affinity (KD) values reported for each peptide are from experiments performed in triplicate. […]

[4] = system: Namalwa Burkitt lymphoma cell line; assay: CellTiter-Glo cell viability assay, Namalwa; assay type: cell-based
[5] = system: PEL cell lines (BC-1, BC-3, BCBL-1); assay: CellTiter-Glo cytotoxicity in panel of PEL cell lines; assay type: cell-based; details: FIG. 5A
[6] = biological target: T1, vFLIP/NEMO complex in vFLIP-FLAG doxycycline-inducible Namalwa cell line (Human herpesvirus 8 type P, UniProt F5HEZ4); assay: Co-immunoprecipitation of vFLIP-FLAG and NEMO; assay type: cell-based; details: 24 hrs treatment, increasing concentrations
T1 construct: expressed in transfected cells; host or cells: Namalwa Burkitt lymphoma cells, lentivirally transduced (pLVX-TetOne-puro), doxycycline-induced
Protocol: Co-Immunoprecipiation: FLAG-tagged WT vFLIP or a vFLIP NF-κB dead mutant (vFLIP^AAA(58-60)) inducible Namalwa Burkitt lymphoma cell lines were used. Expression of WT vFLIP or mutant vFLIP was attained by treating cells with 1 μg/mL doxcycline for 24 hrs. […] 4 hours post-treatment, media was supplemented with 20% FBS and treatment continued for another 24 hrs. Next day, uninduced Namalwa WT vFLIP cell line, treated Namalwa WT vFLIP expressing cell lines as well as Namalwa expressing mutant vFLIP and parental Namalwa cell lines were harvested, washed in PBS and lysed on ice for 30 minutes using CelLytic M lysis reagent (Sigma, cat. C2978) supplemented with protease inhibitor cocktail (calbiochem, cat 539134). Cells were spun down and some of supernatants was saved for input and the rest was immunoprecipitated overnight using anti-FLAG M2beads (Sigma, cat. A2220) that were pre-equilibrated with the same buffer. […]
Immunoblotting: For co-immunoprecipitation study, eluted protein lysates were separated using pre-casted 10% sodium dodecyl sulfate-polyacrylamide gel electrophoresis SDS-PAGE gel (Bio-rad). […] Secondary anti-HRP rabbit antibody was used at 1:5000 dilution (GE healthcare) and chemiluminescent signal was detected using enhanced chemiluminescence (ECL) substrate (thermo Fisher Scientific) and autoradiography. […]

BC-3 PEL cell line [7] = details: BC-3, KSHV+; read-out: PU-H71 LC50; cited from earlier work
BC-1 PEL cell line = details: BC-1, KSHV+/EBV+; read-out: PU-H71 LC50; cited from earlier work
BCBL-1 PEL cell line = details: BCBL-1, KSHV+; read-out: PU-H71 LC50; cited from earlier work
[8] = system: Namalwa Burkitt lymphoma cell line; details: EBV+, read-out: PU-H71 LC50; cited from earlier work
BC-2 PEL cell line = details: BC-2, KSHV+/EBV+; read-out: PU-H71 LC50; cited from earlier work

T1 sequence (F5HEZ4 whole entry, one chain of several): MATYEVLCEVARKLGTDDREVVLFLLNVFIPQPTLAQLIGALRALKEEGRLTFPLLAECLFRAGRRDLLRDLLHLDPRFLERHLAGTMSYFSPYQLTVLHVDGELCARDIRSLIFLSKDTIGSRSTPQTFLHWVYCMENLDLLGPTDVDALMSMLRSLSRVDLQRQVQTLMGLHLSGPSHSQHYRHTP

With CC[C@H](C)[C@H](NC(=O)[C@H](CC(C)C)NC(=O)[C@H](CCC(=O)O)NC(=O)[C@H](CC(=O)O)NC(=O)[C@@H](NC(=O)[C@H](CCCCn1cc(COCc2cn(CCCC[C@H](NC(=O)[C@H](CC(C)C)NC(=O)[C@H](CCCNC(=N)N)NC(=O)[C@H](CCCNC(=N)N)NC(=O)[C@@H](NC(=O)[C@H](CCC(=O)NC3CCCCC3)NC(=O)[C@H](CCC(=O)O)NC(=O)[C@H](Cc3c[nH]c4ccccc34)NC(=O)[C@H](CC(C)C)NC(=O)[C@H](CCC(N)=O)NC(=O)[C@H](CCCNC(=N)N)NC(=O)[C@@H](NC(=O)[C@H](Cc3c[nH]c4ccccc34)NC(=O)[C@H](CCC(=O)O)NC(C)=O)[C@@H](C)CC)[C@@H](C)CC)C(N)=O)nn2)nn1)NC(=O)[C@H](CCCNC(=N)N)NC(=O)[C@H](Cc1ccccc1)NC(=O)[C@H](CC(C)C)NC(=O)[C@H](CCCNC(=N)N)NC(=O)[C@H](Cc1c[nH]cn1)NC(=O)[C@@H](NC(=O)[C@H](CCC(=O)O)NC(C)=O)[C@@H](C)CC)[C@@H](C)CC)C(=O)N[C@@H](CCCNC(=N)N)C(N)=O [CHD3^NEMO] the “cellular uptake at cold temperatures and with sodium azide” value (BC-1 cells; 4° C., 10 mM sodium azide) was “reduction in cellular uptake”, the remaining at 24 h, 60 μM (Serum stability assay) was roughly 80% and the “conformational stability (helix percentage vs temperature)” value [1] was “retain a significant proportion of helix percentage at high temperatures”. For the same molecule, the observed toxicity [2] was “without any observed toxicity”.
Work on CCOc1ccc2nc3cc(N)ccc3c(N)c2c1 [Compound 2] yielded a CC50 (BC-3 PEL cell line [3]) of 12.2 µM and a CC50 (in vitro) of 7.7 µM.
For c1ccc2c(c1)Nc1ccccc1S2 [Compound 3], the CC50 (BC-3 PEL cell line [3]) was 62.7 µM and the CC50 (in vitro) was 63 µM.
For CN(Cc1ccc2cccnc2c1)S(=O)(=O)c1cccs1 [Compound 4], the CC50 (BC-3 PEL cell line [3]) was greater than 100 µM and the CC50 (in vitro) was greater than 100 µM.
Work on Cc1cc(CNC(=O)NC2CCCC2)cc(C)c1O [Compound 5] yielded a CC50 (BC-3 PEL cell line [3]) greater than 100 µM and a CC50 (in vitro) greater than 100 µM.
In the case of CC(=O)N1CCc2cc(C(=O)C(C)Oc3ccc(C#N)cc3Cl)ccc21 (stereo not drawn) [Compound 6], the CC50 (BC-3 PEL cell line [3]) was 35.9 µM and the CC50 (in vitro) was 69.7 µM.
O=C(C1CCCN1c1ncccn1)N1CCc2c(Cl)cccc2C1 (stereo not drawn) [Compound 7] showed a CC50 (BC-3 PEL cell line [3]) of 39.9 µM and a CC50 (in vitro) of 31.6 µM.
Cc1cccc(-c2cccc(CNC(=O)NCCS(C)(=O)=O)c2)c1 [Compound 8] showed a CC50 (BC-3 PEL cell line [3]) greater than 100 µM and a CC50 (in vitro) greater than 100 µM.
In the case of CCCCC(CC)CNC(=N)NC(=N)NCCCCCCNC(=N)NC(=N)NCC(CC)CCCC (stereo not drawn) [Compound 9], the CC50 (BC-3 PEL cell line [3]) was 3.9 µM and the CC50 (in vitro) was 3.8 µM.
In the case of CC[C@H](C)[C@H](NC(=O)[C@H](CC(C)C)NC(=O)[C@H](CCC(=O)O)NC(=O)[C@H](CC(=O)O)NC(=O)[C@@H](NC(=O)[C@H](CCCCn1cc(COCc2cn(CCCC[C@H](NC(=O)[C@H](CC(C)C)NC(=O)[C@H](CCCNC(=N)N)NC(=O)[C@H](CCCNC(=N)N)NC(=O)[C@@H](NC(=O)[C@H](CCC(=O)NC3CCCCC3)NC(=O)[C@H](CCC(=O)O)NC(=O)[C@H](Cc3c[nH]c4ccccc34)NC(=O)[C@H](CC(C)C)NC(=O)[C@H](CCC(N)=O)NC(=O)[C@H](CCCNC(=N)N)NC(=O)[C@@H](NC(=O)[C@H](Cc3c[nH]c4ccccc34)NC(=O)[C@H](CCC(=O)O)NC(=O)CCNC(=S)Nc3ccc4c(c3)C(=O)OC43c4ccc(O)cc4Oc4cc(O)ccc43)[C@@H](C)CC)[C@@H](C)CC)C(N)=O)nn2)nn1)NC(=O)[C@H](CCCNC(=N)N)NC(=O)[C@H](Cc1ccccc1)NC(=O)[C@H](CC(C)C)NC(=O)[C@H](CCCNC(=N)N)NC(=O)[C@H](Cc1c[nH]cn1)NC(=O)[C@@H](NC(=O)[C@H](CCC(=O)O)NC(C)=O)[C@@H](C)CC)[C@@H](C)CC)C(=O)N[C@@H](CCCNC(=N)N)C(N)=O [FITC-CHD3^NEMO], the “binding to wild-type NEMO coiled coil” value (full length NEMO) was “failed to bind wild-type NEMO coiled coil” and the “time to enter BC-1 cells” value (BC-1 cells; 500 nM FITC-labeled peptide, 37° C.) was no more than 30 min.
With CC(C)NCCCn1c(Sc2cc3c(cc2I)OCO3)nc2c(N)ncnc21 [PU-H71] the “sensitivity of vFLIP-negative Namalwa cells” value [4] was “showed sensitivity”, the “sensitivity of PEL cell lines” value [5] was “showed sensitivity” and the “disruption of vFLIP/NEMO complex (NEMO pulled down by FLAG beads)” value [6] was “disrupted the complex and destabilized both vFLIP and NEMO”. For the same molecule, the CC50 (BC-3 PEL cell line [7]) was 0.0634 µM, the CC50 (BC-1 PEL cell line) was 0.0369 µM and the CC50 (BCBL-1 PEL cell line) was 0.217 µM. For the same molecule, the CC50 [8] was 0.337 µM and the CC50 (BC-2 PEL cell line) was 0.0271 µM.

— US11891422B2 (priority 2018, dated 2024)
